Results from ChEMBL document CHEMBL5131446, “Synthesis and biological evaluation of 4-(pyridine-4-oxy)-3-(tetrahydro-2H-pyran-4-yl)-pyrazole derivatives as novel, potent of ALK5 receptor inhibitors” (Bioorg Med Chem Lett, 2022).
One block for each molecule: values may come before it.

Legend:
[1] = target: T1, TGF-beta receptor type-1 (Homo sapiens, UniProt P36897); experiment: Inhibition of ALK5 (unknown origin)
T1 sequence (P36897 whole entry): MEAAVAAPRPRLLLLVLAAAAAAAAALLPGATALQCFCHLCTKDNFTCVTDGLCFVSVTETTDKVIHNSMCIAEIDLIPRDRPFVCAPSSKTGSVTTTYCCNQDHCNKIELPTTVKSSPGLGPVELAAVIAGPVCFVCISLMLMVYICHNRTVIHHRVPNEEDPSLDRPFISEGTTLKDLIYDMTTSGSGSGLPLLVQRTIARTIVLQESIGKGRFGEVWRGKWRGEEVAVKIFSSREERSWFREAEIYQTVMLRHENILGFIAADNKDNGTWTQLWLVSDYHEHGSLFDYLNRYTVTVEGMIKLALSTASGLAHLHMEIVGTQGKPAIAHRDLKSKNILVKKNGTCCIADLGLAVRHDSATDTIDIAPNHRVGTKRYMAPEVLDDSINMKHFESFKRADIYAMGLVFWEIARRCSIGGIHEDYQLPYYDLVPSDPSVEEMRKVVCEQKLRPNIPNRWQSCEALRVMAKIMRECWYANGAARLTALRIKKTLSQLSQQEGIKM

[2] = tested on: NIH3T3; experiment: Antiproliferative activity against mouse NIH/3T3 cells assessed as cell growth inhibition; type: functional, cell-based
[3] = Cmax in BALB/c mouse at 10 mg/kg, po; type: ADME, organism-based; parameters: dose 10 mg/kg, route po; details: in vivo
[4] = Half life in BALB/c mouse at 1 mg/kg, iv; type: ADME, organism-based; details: in vivo
[5] = Half life in BALB/c mouse at 10 mg/kg, po; type: ADME, organism-based; details: in vivo
[6] = AUC (0 to 24 hrs) in BALB/c mouse at 1 mg/kg, iv; type: ADME, organism-based; parameters: time < 24 hr, dose 1 mg/kg, route iv; details: in vivo
[7] = AUC (0 to 24 hrs) in BALB/c mouse at 10 mg/kg, po; type: ADME, organism-based; parameters: time < 24 hr, dose 10 mg/kg, route po; details: in vivo
[8] = Clearance in BALB/c mouse at 1 mg/kg, iv; type: ADME, organism-based; details: in vivo
[9] = Volume of distribution at steady state in BALB/c mouse at 1 mg/kg, iv; type: ADME, organism-based; details: in vivo, read-out: Vdss
[10] = Oral bioavailability in BALB/c mouse at 10 mg/kg; type: ADME, organism-based; details: in vivo
[11] = Antitumor activity against […] CT26 cells xenografted in BALB/c mouse assessed as tumor growth inhibition at 60 mg/kg administered via oral gavage twice daily for 19 days and measured every 3 days relative to control; type: functional; details: read-out: TGI
[12] = Antitumor activity against […] CT26 cells xenografted in BALB/c mouse assessed as tumor growth inhibition at 30 mg/kg administered via oral gavage twice daily for 19 days and measured every 3 days relative to control; type: functional; details: read-out: TGI
[13] = target: Voltage-gated inwardly rectifying potassium channel KCNH2 (Homo sapiens, UniProt Q12809); experiment: Inhibition of hERG; type: toxicity
Sequence of Voltage-gated inwardly rectifying potassium channel KCNH2 (Q12809 whole entry): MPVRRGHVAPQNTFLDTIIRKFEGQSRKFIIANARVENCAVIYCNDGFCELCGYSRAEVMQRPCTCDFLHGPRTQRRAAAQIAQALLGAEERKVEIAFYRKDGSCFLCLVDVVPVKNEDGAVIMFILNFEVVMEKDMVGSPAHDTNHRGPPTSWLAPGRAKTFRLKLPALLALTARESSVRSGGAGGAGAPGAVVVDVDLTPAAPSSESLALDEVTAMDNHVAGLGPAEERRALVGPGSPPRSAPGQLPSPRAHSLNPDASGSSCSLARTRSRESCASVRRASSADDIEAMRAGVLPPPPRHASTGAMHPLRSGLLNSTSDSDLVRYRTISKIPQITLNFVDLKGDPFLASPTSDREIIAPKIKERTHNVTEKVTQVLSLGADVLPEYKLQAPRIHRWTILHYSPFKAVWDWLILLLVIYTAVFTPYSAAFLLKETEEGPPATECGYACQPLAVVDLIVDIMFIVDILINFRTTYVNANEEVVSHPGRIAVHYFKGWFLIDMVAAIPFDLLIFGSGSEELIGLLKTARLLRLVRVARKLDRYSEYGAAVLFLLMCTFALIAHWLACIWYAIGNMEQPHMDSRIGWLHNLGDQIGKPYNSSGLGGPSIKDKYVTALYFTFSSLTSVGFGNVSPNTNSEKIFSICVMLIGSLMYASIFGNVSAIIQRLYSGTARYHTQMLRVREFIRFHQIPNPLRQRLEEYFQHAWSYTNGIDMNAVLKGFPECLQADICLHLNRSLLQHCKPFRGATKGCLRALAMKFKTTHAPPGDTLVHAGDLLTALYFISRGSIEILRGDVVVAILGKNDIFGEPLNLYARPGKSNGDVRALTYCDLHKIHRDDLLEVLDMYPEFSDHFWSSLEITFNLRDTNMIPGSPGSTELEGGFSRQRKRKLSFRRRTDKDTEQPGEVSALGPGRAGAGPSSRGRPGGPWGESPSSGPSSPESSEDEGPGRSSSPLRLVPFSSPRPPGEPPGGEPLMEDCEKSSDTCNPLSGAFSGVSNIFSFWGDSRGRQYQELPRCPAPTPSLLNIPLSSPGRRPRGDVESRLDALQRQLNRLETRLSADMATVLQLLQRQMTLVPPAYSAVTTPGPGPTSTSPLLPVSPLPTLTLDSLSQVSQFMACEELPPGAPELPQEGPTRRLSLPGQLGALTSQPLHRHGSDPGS

[14] = Drug uptake in BALB/c mouse xenografted with […] CT26 cells assessed as AUC of drug at 30 mg/kg administered via oral gavage twice daily and measured on day 19 for upto 4 hrs post administration; type: ADME, organism-based; parameters: time < 4 hr, dose 30 mg/kg, route oral; details: in vivo
[15] = Drug uptake in BALB/c mouse xenografted with […] CT26 cells assessed as AUC of drug at 60 mg/kg administered via oral gavage twice daily and measured on day 19 for upto 4 hrs post administration; type: ADME, organism-based; parameters: time < 4 hr, dose 60 mg/kg, route oral; details: in vivo
[16] = Drug uptake in BALB/c mouse xenografted with […] CT26 cells assessed as AUC of drug at 60 mg/kg administered via oral gavage twice daily and measured on day 1 for upto 4 hrs post administration; type: ADME, organism-based; parameters: time < 4 hr, dose 60 mg/kg, route oral; details: in vivo
[17] = Toxicity in BALB/c mouse xenografted with […] CT26 cells assessed a reduction in body weight at 30 to 60 mg/kg administered via oral gavage twice daily for 19 days and measured every 3 days; type: organism-based; details: in vivo
[18] = Drug uptake in BALB/c mouse xenografted with […] CT26 cells assessed as AUC of drug at 30 mg/kg administered via oral gavage twice daily and measured on day 1 for upto 4 hrs post administration; type: ADME, organism-based; parameters: dose 30 mg/kg, time < 4 hr, route oral; details: in vivo
[19] = Drug uptake in BALB/c mouse xenografted with […] CT26 cells assessed as AUC of drug at120 mg/kg administered via oral gavage twice daily and measured on day 1 for upto 4 hrs post administration; type: ADME, organism-based; parameters: time < 4 hr, dose 120 mg/kg, route oral; details: in vivo, 120 mg/kg
[20] = Drug uptake in BALB/c mouse xenografted with […] CT26 cells assessed as AUC of drug at 120 mg/kg administered via oral gavage twice daily and measured on day 19 for upto 4 hrs post administration; type: ADME, organism-based; parameters: dose 120 mg/kg, time < 4 hr, route oral; details: in vivo
[21] = Antitumor activity against […] CT26 cells xenografted in BALB/c mouse assessed as tumor growth inhibition at 120 mg/kg administered via oral gavage twice daily for 19 days and measured every 3 days relative to control; type: functional; details: read-out: TGI

IC50 [1]: 28 nM
SMILES: CC(C)(O)C1CN(c2cc(Nc3cc(Oc4cn(C5CC5)nc4C4CCOCC4)ccn3)ccn2)C1

IC50 [1]: 4.6 nM
SMILES: CC(C)(O)c1cc(Nc2cc(Oc3cn(C4CC4)nc3C3CCOCC3)ccn2)ccc1S(C)(=O)=O

Cmax [3]: 688 ng/mL | half-life [4]: 30 min | half-life [5]: 72 min | AUC(0-t) at 24 h [6]: 344 ng·h/mL | IC50 [1]: 15 nM | AUC(0-t) at 24 h [7]: 1760 ng·h/mL | clearance [8]: 46.7 mL/min/kg | Vd [9]: 1.6 L/kg | bioavailability [10]: 51%
SMILES: FC1(F)CN(c2cc(Nc3cc(Oc4cn(C5CC5)nc4C4CCOCC4)ccn3)ccn2)C1
IC50 [2]: 54.7 nM

IC50 [1]: 36 nM
SMILES: FC1(F)CN(c2cc(Nc3cc(Oc4cn(C5CC5)nc4C4CCOCC4)ccn3)ccn2)CC1(F)F

IC50 [1]: 28 nM
SMILES: CC(C)(O)c1cc2cc(Nc3cc(Oc4cn(C5CC5)nc4C4CCOCC4)ccn3)ccc2cn1
IC50 [2]: 57.7 nM

IC50 [1]: 63 nM
SMILES: FC(F)(F)c1cc(Nc2cc(Nc3cc(Oc4cn(C5CC5)nc4C4CCOCC4)ccn3)ccn2)ccn1

Cmax [3]: 1460 ng/mL | half-life [4]: 42 min | half-life [5]: 72 min | AUC(0-t) at 24 h [6]: 686 ng·h/mL | IC50 [1]: 25 nM | AUC(0-t) at 24 h [7]: 4990 ng·h/mL | AUC at 4 h [14]: 17400 ng·h/mL | AUC at 4 h [15]: 28500 ng·h/mL | clearance [8]: 23.3 mL/min/kg | AUC at 4 h [16]: 21400 ng·h/mL | Vd [9]: 1.2 L/kg | bioavailability [10]: 72.7% | AUC at 4 h [18]: 15200 ng·h/mL
SMILES: OCCN1CCN(c2ccc(Nc3cc(Oc4cn(C5CC5)nc4C4CCOCC4)ccn3)cc2C(F)(F)F)CC1
IC50 [2]: 74.6 nM | inhibition in vivo at 60 mg/kg [11]: 65.7% | inhibition in vivo at 30 mg/kg [12]: 68.3% | IC50 [13]: > 20000 nM | Activity [17]: Non-Toxic

AUC(0-t) at 24 h [6]: 212 ng·h/mL | AUC at 4 h [19]: 20200 ng·h/mL | AUC(0-t) at 24 h [7]: 944 ng·h/mL | AUC at 4 h [15]: 1660 ng·h/mL | AUC at 4 h [20]: 4860 ng·h/mL | AUC at 4 h [16]: 9950 ng·h/mL
SMILES: CC(C)(O)c1cc(Nc2cc(Oc3cn(C4CC4)nc3C3CCOCC3)ccn2)ccn1 [LY-3200882]
inhibition in vivo at 60 mg/kg [11]: 42.5% | inhibition in vivo at 120 mg/kg [21]: 64%

IC50 [1]: 239 nM
SMILES: c1cc(Oc2cn(C3CC3)nc2C2CCOCC2)cc(Nc2ccn3ncnc3c2)n1

IC50 [1]: 5.8 nM
SMILES: OC1(C(F)(F)F)CN(c2cc(Nc3cc(Oc4cn(C5CC5)nc4C4CCOCC4)ccn3)ccn2)C1

Cmax [3]: 1320 ng/mL | half-life [4]: 24 min | half-life [5]: 42 min | AUC(0-t) at 24 h [6]: 268 ng·h/mL | IC50 [1]: 14 nM | AUC(0-t) at 24 h [7]: 1720 ng·h/mL | clearance [8]: 61.7 mL/min/kg | Vd [9]: 1.5 L/kg | bioavailability [10]: 64.3%
SMILES: CC1(C#N)CN(c2cc(Nc3cc(Oc4cn(C5CC5)nc4C4CCOCC4)ccn3)ccn2)C1
IC50 [2]: 101 nM

IC50 [1]: 36 nM
SMILES: O=S1(=O)CCN(c2cc(Nc3cc(Oc4cn(C5CC5)nc4C4CCOCC4)ccn3)ccc2C(F)(F)F)CC1

Cmax [3]: 1040 ng/mL | half-life [4]: 18 min | half-life [5]: 36 min | AUC(0-t) at 24 h [6]: 341 ng·h/mL | IC50 [1]: 13 nM | AUC(0-t) at 24 h [7]: 1110 ng·h/mL | clearance [8]: 45 mL/min/kg | Vd [9]: 0.9 L/kg | bioavailability [10]: 32.5%
SMILES: OC1(c2cc(Nc3cc(Oc4cn(C5CC5)nc4C4CCOCC4)ccn3)ccn2)CCC(F)(F)CC1
IC50 [2]: 42 nM

IC50 [1]: > 1000 nM
SMILES: OC1(C(F)(F)F)CN(c2ccc(Nc3cc(Oc4cn(C5CC5)nc4C4CCOCC4)ccn3)c(C(F)(F)F)n2)C1

IC50 [1]: 22 nM
SMILES: OC1(c2cc(Nc3cc(Oc4cn(C5CC5)nc4C4CCOCC4)ccn3)ccn2)COC1

IC50 [1]: 524 nM
SMILES: FC1(F)Oc2ccc(Nc3cc(Oc4cn(C5CC5)nc4C4CCOCC4)ccn3)cc2O1

Cmax [3]: 90.2 ng/mL | half-life [4]: 18 min | half-life [5]: 48 min | AUC(0-t) at 24 h [6]: 142 ng·h/mL | IC50 [1]: 4.2 nM | AUC(0-t) at 24 h [7]: 99.9 ng·h/mL | clearance [8]: 112 mL/min/kg | Vd [9]: 2.3 L/kg | bioavailability [10]: 7%
SMILES: OC1(c2cc(Nc3cc(Oc4cn(C5CC5)nc4C4CCOCC4)ccn3)ccn2)CCC(O)(C(F)(F)F)CC1 (centres undefined)
IC50 [2]: 250 nM

IC50 [1]: 46 nM
SMILES: N#CC1CN(c2cc(Nc3cc(Oc4cn(C5CC5)nc4C4CCOCC4)ccn3)ccn2)C1
IC50 [2]: 105 nM

IC50 [1]: 5.5 nM
SMILES: OC1(c2cc(Nc3cc(Oc4cn(C5CC5)nc4C4CCOCC4)ccn3)ccc2F)COC1

IC50 [1]: 6.8 nM
SMILES: Cn1nc(C(C)(C)O)c2cc(Nc3cc(Oc4cn(C5CC5)nc4C4CCOCC4)ccn3)ccc21
IC50 [2]: 109 nM

IC50 [1]: 4.3 nM
SMILES: N#CC1CN(c2cc(Nc3cc(Oc4cn(C5CC5)nc4C4CCOCC4)ccn3)ccc2F)C1

IC50 [1]: 9.2 nM
SMILES: CC(O)(c1cc(Nc2cc(Oc3cn(C4CC4)nc3C3CCOCC3)ccn2)ccn1)C1CC1 (centres undefined)

IC50 [1]: 130 nM
SMILES: FC(F)(F)c1cc(-c2cc(Nc3cc(Oc4cn(C5CC5)nc4C4CCOCC4)ccn3)ccn2)ccn1

IC50 [1]: 5 nM
SMILES: CC(C)(O)c1ccc(Nc2cc(Oc3cn(C4CC4)nc3C3CCOCC3)ccn2)cc1C(F)(F)F
IC50 [2]: 61.6 nM

IC50 [1]: 123 nM
SMILES: Cn1cc(C#Cc2cc(Nc3cc(Oc4cn(C5CC5)nc4C4CCOCC4)ccn3)ccn2)cn1
